Test results reported in patent EP4810038A1, “METHOD FOR TREATING ALK-POSITIVE OR ROS1-POSITIVE NON-SMALL CELL LUNG CANCER” (Shenzhen TargetRx Co., Ltd., priority 2023, dated 2025).

Columns and labels:
[1] = system: Ba/F3 (SLC34A2-ROS1 G2032R) cell line; test: Anti-tumor effect in subcutaneous transplanted Ba/F3 (SLC34A2-ROS1 G2032R) model; format: in vivo, NOD-SCID mice; details: 100 mg/kg p.o. once daily; 21st day after administration
Text: Housing environment: SPF grade.
Environmental conditions of the housing room of the laboratory animals: All the laboratory animals were housed in individually ventilated cages with constant temperature and constant humidity. […] The animals were continuously provided with cobalt-60 irradiated complete pelleted mouse feed with unlimited free access. The animals drank tap water (used after being autoclaved), which was provided continuously from water bottles, allowing for free access. The cages for raising the mice were polysulfone mice cages, which were autoclaved before use, and measured 325 mm × 210 mm × 180 mm. The bedding was autoclaved corn cobs. Each cage contained 5 animals. The cage cards were marked with the IACUC approval number, experiment number, start time of the experiment, project leader, experimenters, source of the animals, group, and animal number. The laboratory animals were marked with ear tags or ear labels.
The Ba/F3 (SLC34A2-ROS1 G2032R) cells in the exponential growth phase were collected, resuspended in PBS to a suitable concentration, and then subcutaneously inoculated into nude mice for tumor formation.
Assay method: Female NOD/SCID mice were subcutaneously inoculated with 2×10^6 Ba/F3 (SLC34A2-ROS1 G2032R) cells on the right side to establish a subcutaneous tumor transplantation model. […] The mice were administered orally via gavage once daily. The efficacy was evaluated based on the relative tumor growth inhibition rate (TGI), and the safety was evaluated based on the changes in the body weight and mortality of the animals.
All the procedures, including drug administration, tumor measurement, weight measurement, etc., were performed in a biosafety cabinet or on a clean bench.
The relative tumor growth rate (T/C%) was the percentage value of the relative tumor volume between a treatment group and the control group at a certain time point, or the percentage value of the tumor weight between a treatment group and the control group. The calculation formula was: T/C% = TRTV / CRTV × 100% (TRTV: the average RTV of the treatment group; CRTV: the average RTV of the solvent control group; RTV = Vt / V0, wherein V0 is the tumor volume of the animal at the time of grouping, and Vt is the tumor volume of the animal after treatment); or T/C% = TTW / CTW × 100% (TTW: the average tumor weight at the end of the assay in the treatment group; CTW: the average tumor weight at the end of the assay in the solvent control group).
Statistical analysis: To compare the tumor volume on a given day across the different treatment groups, we first used the Bartlett's test to verify the assumption of homogeneity of variance among all the groups. When the p-value of the Bartlett's test was not less than 0.05, one-way ANOVA was used to test whether the means of all the groups were equal. If the p-value of the one-way ANOVA was less than 0.05, we would use the Tukey's HSD test for the pairwise comparisons between all the groups, or use the Dunnett's test for a pairwise comparison between each treatment group and the control group. When the p-value of the Bartlett's test was less than 0.05, the Kruskal-Wallis test was used to test whether the medians of all the groups were equal. […]

[2] = 100 mg of lorlatinib, GM (%CV), cited from earlier work

SMILES | average tumor volume [1] | AR ([2]; Multiple administrations) | AUC0-τ ([2]; Multiple administrations) | Cmax, SS ([2]; Multiple administrations) | AUC(0-inf) ([2]; Single administration) | Cmax ([2]; Single administration) | T1/2 ([2]; Single administration)
C[C@@H](Oc1cc(-c2cnn(C3CCNCC3)c2)cnc1N)c1c(Cl)ccc(F)c1Cl [crizotinib, reference compound] | 1651.66 mm^3 | – | – | – | – | – | –
C[C@H]1Oc2cc(cnc2N)-c2c(nn(C)c2C#N)CN(C)C(=O)c2ccc(F)cc21 [lorlatinib] | – | 0.718(55)[11] | 5946(46)[11] h*ng/ mL | 644.8(32)[11] ng/mL | 9590(11)[7] h*ng/ mL | 907.2(24) [7] ng/mL | 20.0(22)[7] hour
